Entries after “also recorded” stand apart in the source; their conditions may differ.
Legend:
[1] = system: Male Sprague-Dawley rats; conditions: rat, in vivo
[2] = system: Male Sprague-Dawley rats; conditions: rat, in vivo; remark: listed apart in the source
[3] = system: cholinergic neurons of the QA lesioned striatum; conditions: rat, in vivo
[4] = system: GABAergic neurons of the QA lesioned striatum; conditions: rat, in vivo
[5] = system: NMDA receptor; conditions: literature, cited from earlier work; for motor impairment: relative to analgesic doses
[6] = system: formalin test; conditions: literature; ifenprodil at a high dose; cited from earlier work
[7] = system: NMDA polyamine site, forebrain membrane preparations; conditions: cited from earlier work

β-endorphin
dose at which maximal possible effect was observed, phase I [1]: 1.0 µg
dose at which maximal possible effect was observed, phase II [1]: 3.3 µg
dose required to inhibit / significantly attenuate phase I flinches [1]: 0.3 µg
dose required to inhibit / significantly attenuate phase II flinches [1]: 0.6 µg
effect of the single agent alone [1]: no effect
effect on flinches in both phase I and phase II [1]: dose-dependent decrease in flinches
effect on phase I flinches [1]: no effect
effect on phase II flinches [1]: no effect
overt side effects [2]: overt signs of sedation and motor impairment

Gly-Glu-Gla-Gla-Leu-Gln-Gla-Asn-Gln-Gla-Leu-Ile-Arg-Gla-Lys-Ser-Asn-NH2 [Conantokin G]
dose required to inhibit / significantly attenuate phase I flinches [1]: 1.0 µg
dose required to inhibit / significantly attenuate phase II flinches [1]: 0.05 µg
QA lesion-induced loss of ChAT activity [3]: completely blocked
QA lesion-induced loss of GAD activity [4]: completely blocked; also recorded: complete prevention

Gly-Glu-Gla-Gla-Val-Ala-Lys-Met-Ala-Ala-Glu-Leu-Ala-Arg-Glu-Asn-Ile-Ala-Lys-Gly-Cys-Lys-Val-Asn-Cys-Tyr-Pro [Conantokin R]
dose required to inhibit / significantly attenuate phase I flinches [1]: 3.3 µg
dose required to inhibit / significantly attenuate phase II flinches [1]: 3.3 µg

c1ccc(C2(N3CCCCC3)CCCCC2)cc1 [phenylcyclidine (PCP), phenylcyclidine]
analgesic activity [5]: show analgesic activity
motor impairment [5]: show motor impairment at equivalent doses

CC(C(O)c1ccc(O)cc1)N1CCC(Cc2ccccc2)CC1 (stereo not shown) [ifenprodil]
analgesic effect in the formalin test [6]: did not have an analgesic effect; also recorded: no effect

NCCCNCCCCNCCCN [spermine]
maximal effective concentration for enhancement of [3H]MK-801 binding [7]: about 20 μM

C[C@]12N[C@H](Cc3ccccc31)c1ccccc12 [MK-801]
dose required to inhibit / significantly attenuate phase II flinches [1]: 30 µg
side effects at the dose attenuating phase II flinches [2]: side effects, including head weaving
toxicity at doses that decreased flinches [2]: clear toxicity
analgesic effect in the formalin test [6]: submaximal analgesic effect
analgesic activity [5]: show analgesic activity
motor impairment [5]: show motor impairment at equivalent doses

— US6407204B1 (priority 1997, dated 2002)
